Laboratory results published in publication PMC7377239, “Cardiovascular Effects of Polychlorinated Biphenyls and Their Major Metabolites” (Environmental Health Perspectives, 2020).
Counter-ions that a name gives are not always drawn. Like-named read-outs stand apart in the source and are kept apart here.

Test system: iCell cardiomyocytes (human iPSC-derived cardiomyocytes)
Assay: Intracellular Ca2+ flux / beating parameters in iCell cardiomyocytes (FLIPR tetra), 90 min or 24 h
Assay type: cell-based
Details: 0.00 µM = 100.00; for activity at 0.01 µM / activity at 0.1 µM / activity at 1 µM / activity at 10 µM / activity at 100 µM: Homo sapiens, Cardiomyocyte
Summary of the method: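 Gelatin-plated iCell cardiomyocytes (5,000/well) were dye-loaded for 2 h at 37 °C, then exposed for 90 min or 24 h to PCBs/metabolites (5× plates at 0.05–500 µM; 0.5% DMSO final) in triplicate. Ca2+ flux was read for 100 s at 8 Hz and 37 °C. Peak height, frequency, spacing CV and decay/rise ratio were vehicle-normalized and fitted with a four-parameter logistic model, with POD set at 1 SD of vehicle.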

[1] = 1.5 h, 0.01 µM, read-out: cm.amp.avg.90min
[2] = 1.5 h, 0.01 µM, read-out: cm.amp.cv.90min
[3] = 1.5 h, 0.01 µM, read-out: cm.bpm.90min
[4] = 1.5 h, 0.01 µM, read-out: cm.decay.rise.90min
[5] = 1.5 h, 0.01 µM, read-out: cm.spacing.cv.90min
[6] = 1.5 h, 0.10 µM, read-out: cm.amp.avg.90min
[7] = 1.5 h, 0.10 µM, read-out: cm.amp.cv.90min
[8] = 1.5 h, 0.10 µM, read-out: cm.bpm.90min
[9] = 1.5 h, 0.10 µM, read-out: cm.decay.rise.90min
[10] = 1.5 h, 0.10 µM, read-out: cm.spacing.cv.90min
[11] = 1.5 h, 1.00 µM, read-out: cm.amp.avg.90min
[12] = 1.5 h, 1.00 µM, read-out: cm.amp.cv.90min
[13] = 1.5 h, 1.00 µM, read-out: cm.bpm.90min
[14] = 1.5 h, 1.00 µM, read-out: cm.decay.rise.90min
[15] = 1.5 h, 1.00 µM, read-out: cm.spacing.cv.90min
[16] = 1.5 h, 10.00 µM, read-out: cm.amp.avg.90min
[17] = 1.5 h, 10.00 µM, read-out: cm.amp.cv.90min
[18] = 1.5 h, 10.00 µM, read-out: cm.bpm.90min
[19] = 1.5 h, 10.00 µM, read-out: cm.decay.rise.90min
[20] = 1.5 h, 10.00 µM, read-out: cm.spacing.cv.90min
[21] = 1.5 h, 100.00 µM, read-out: cm.amp.avg.90min
[22] = 1.5 h, 100.00 µM, read-out: cm.amp.cv.90min
[23] = 1.5 h, 100.00 µM, read-out: cm.bpm.90min
[24] = 1.5 h, 100.00 µM, read-out: cm.decay.rise.90min
[25] = 1.5 h, 100.00 µM, read-out: cm.spacing.cv.90min
[26] = 24 h, 0.01 µM, read-out: cm.amp.avg.24hrs
[27] = 24 h, 0.01 µM, read-out: cm.amp.cv.24hrs
[28] = 24 h, 0.01 µM, read-out: cm.bpm.24hrs
[29] = 24 h, 0.01 µM, read-out: cm.decay.rise.24hrs
[30] = 24 h, 0.01 µM, read-out: cm.spacing.cv.24hrs
[31] = 24 h, 0.10 µM, read-out: cm.amp.avg.24hrs
[32] = 24 h, 0.10 µM, read-out: cm.amp.cv.24hrs
[33] = 24 h, 0.10 µM, read-out: cm.bpm.24hrs
[34] = 24 h, 0.10 µM, read-out: cm.decay.rise.24hrs
[35] = 24 h, 0.10 µM, read-out: cm.spacing.cv.24hrs
[36] = 24 h, 1.00 µM, read-out: cm.amp.avg.24hrs
[37] = 24 h, 1.00 µM, read-out: cm.amp.cv.24hrs
[38] = 24 h, 1.00 µM, read-out: cm.bpm.24hrs
[39] = 24 h, 1.00 µM, read-out: cm.decay.rise.24hrs
[40] = 24 h, 1.00 µM, read-out: cm.spacing.cv.24hrs
[41] = 24 h, 10.00 µM, read-out: cm.amp.avg.24hrs
[42] = 24 h, 10.00 µM, read-out: cm.amp.cv.24hrs
[43] = 24 h, 10.00 µM, read-out: cm.bpm.24hrs
[44] = 24 h, 10.00 µM, read-out: cm.decay.rise.24hrs
[45] = 24 h, 10.00 µM, read-out: cm.spacing.cv.24hrs
[46] = 24 h, 100.00 µM, read-out: cm.amp.avg.24hrs
[47] = 24 h, 100.00 µM, read-out: cm.amp.cv.24hrs
[48] = 24 h, 100.00 µM, read-out: cm.bpm.24hrs
[49] = 24 h, 100.00 µM, read-out: cm.decay.rise.24hrs
[50] = 24 h, 100.00 µM, read-out: cm.spacing.cv.24hrs

In the case of `Oc1ccc(-c2cccc(Cl)c2)cc1Cl` [4-OH PCB11], the activity at 0.01 µM [1] is reported as 107%, the activity at 0.01 µM [2] is reported as 101% and the activity at 0.01 µM [3] is reported as 107%. The activity at 0.01 µM [4] was 99.5%, the activity at 0.01 µM [5] was 111% and the activity at 0.1 µM [6] was 96%. It also gave an activity at 0.1 µM [7] of 97.9%, an activity at 0.1 µM [8] of 102% and an activity at 0.1 µM [9] of 94.9%. The activity at 0.1 µM [10] was 90.9%, the activity at 1 µM [11] was 103% and the activity at 1 µM [12] was 91.8%. For the same molecule, the activity at 1 µM [13] was 99.1%, the activity at 1 µM [14] was 96.5% and the activity at 1 µM [15] was 95.9%. For the same molecule, the activity at 10 µM [16] was 89.2%, the activity at 10 µM [17] was 99% and the activity at 10 µM [18] was 104%. The activity at 10 µM [19] was 94.9%, the activity at 10 µM [20] was 104% and the activity at 100 µM [21] was 0%. The activity at 100 µM [22] was 0%, the activity at 100 µM [23] was 0% and the activity at 100 µM [24] was 0%. It also gave an activity at 100 µM [25] of 0%, an activity at 0.01 µM [26] of 93.8% and an activity at 0.01 µM [27] of 28.6%. The activity at 0.01 µM [28] was 46.8%, the activity at 0.01 µM [29] was 48.9% and the activity at 0.01 µM [30] was 46.2%. The activity at 0.1 µM [31] was 110%, the activity at 0.1 µM [32] was 104% and the activity at 0.1 µM [33] was 92.6%. The activity at 0.1 µM [34] was 109%, the activity at 0.1 µM [35] was 104% and the activity at 1 µM [36] was 92.2%. For the same molecule, the activity at 1 µM [37] was 98.4%, the activity at 1 µM [38] was 89.7% and the activity at 1 µM [39] was 99.3%. It also gave an activity at 1 µM [40] of 89.5%, an activity at 10 µM [41] of 135% and an activity at 10 µM [42] of 67.1%. It also gave an activity at 10 µM [43] of 93.6%, an activity at 10 µM [44] of 106% and an activity at 10 µM [45] of 91.5%. It also gave an activity at 100 µM [46] of 0%, an activity at 100 µM [47] of 0% and an activity at 100 µM [48] of 0%. It also gave an activity at 100 µM [49] of 0% and an activity at 100 µM [50] of 0%.
With `O=S(=O)(O)Oc1cc(Cl)ccc1-c1ccccc1` [2-yl PCB 3 sulfate] the activity at 0.01 µM [1] was 107%, the activity at 0.01 µM [2] was 102% and the activity at 0.01 µM [3] was 99.1%. The activity at 0.01 µM [4] was 97.6%, the activity at 0.01 µM [5] was 134% and the activity at 0.1 µM [6] was 107%. For the same molecule, the activity at 0.1 µM [7] was 90.3%, the activity at 0.1 µM [8] was 97.8% and the activity at 0.1 µM [9] was 94.2%. It also gave an activity at 0.1 µM [10] of 100%, an activity at 1 µM [11] of 102% and an activity at 1 µM [12] of 102%. It also gave an activity at 1 µM [13] of 96.5%, an activity at 1 µM [14] of 99.3% and an activity at 1 µM [15] of 99.6%. For the same molecule, the activity at 10 µM [16] was 106%, the activity at 10 µM [17] was 107% and the activity at 10 µM [18] was 96.5%. It also gave an activity at 10 µM [19] of 97.2%, an activity at 10 µM [20] of 90.8% and an activity at 100 µM [21] of 114%. It also gave an activity at 100 µM [22] of 117%, an activity at 100 µM [23] of 84% and an activity at 100 µM [24] of 100%. It also gave an activity at 100 µM [25] of 99%, an activity at 0.01 µM [26] of 117% and an activity at 0.01 µM [27] of 119%. The activity at 0.01 µM [28] was 111%, the activity at 0.01 µM [29] was 86.8% and the activity at 0.01 µM [30] was 109%. For the same molecule, the activity at 0.1 µM [31] was 63.4%, the activity at 0.1 µM [32] was 37.6% and the activity at 0.1 µM [33] was 53.5%. For the same molecule, the activity at 0.1 µM [34] was 43.6%, the activity at 0.1 µM [35] was 50.5% and the activity at 1 µM [36] was 0%. It also gave an activity at 1 µM [37] of 0%, an activity at 1 µM [38] of 0% and an activity at 1 µM [39] of 0%. It also gave an activity at 1 µM [40] of 0%, an activity at 10 µM [41] of 121% and an activity at 10 µM [42] of 81.4%. The activity at 10 µM [43] was 92.6%, the activity at 10 µM [44] was 98.1% and the activity at 10 µM [45] was 91.4%. The activity at 100 µM [46] was 97.7%, the activity at 100 µM [47] was 85.5% and the activity at 100 µM [48] was 77.3%. For the same molecule, the activity at 100 µM [49] was 106% and the activity at 100 µM [50] was 86.6%.
In the case of `Clc1ccc(Cl)c(-c2c(Cl)ccc(Cl)c2Cl)c1Cl` [(-)-PCB 136, 2,2′,3,3′,6,6′-hexachlorobiphenyl], the cm.amp.avg.90min (0.01 µM) is reported as 93.19, the cm.amp.cv.90min (0.01 µM) is reported as 114.99 and the cm.bpm.90min (0.01 µM) is reported as 99.06. The cm.decay.rise.90min (0.01 µM) was 100.18, the cm.spacing.cv.90min (0.01 µM) was 110.22 and the cm.amp.avg.24hrs (0.01 µM) was 96.89. The cm.amp.cv.24hrs (0.01 µM) was 99.89, the cm.bpm.24hrs (0.01 µM) was 97.37 and the cm.decay.rise.24hrs (0.01 µM) was 110.34. For the same molecule, the cm.spacing.cv.24hrs (0.01 µM) was 99.92, the cm.amp.avg.90min (0.10 µM) was 107.52 and the cm.amp.cv.90min (0.10 µM) was 110.59. It also gave a cm.bpm.90min (0.10 µM) of 101.57, a cm.decay.rise.90min (0.10 µM) of 100.78 and a cm.spacing.cv.90min (0.10 µM) of 107.82. For the same molecule, the cm.amp.avg.24hrs (0.10 µM) was 74.13, the cm.amp.cv.24hrs (0.10 µM) was 32.34 and the cm.bpm.24hrs (0.10 µM) was 44.87. For the same molecule, the cm.decay.rise.24hrs (0.10 µM) was 55.66, the cm.spacing.cv.24hrs (0.10 µM) was 50.62 and the cm.amp.avg.90min (1.00 µM) was 95.68. It also gave a cm.amp.cv.90min (1.00 µM) of 133.10, a cm.bpm.90min (1.00 µM) of 102.82 and a cm.decay.rise.90min (1.00 µM) of 105.32. The cm.spacing.cv.90min (1.00 µM) was 97.68, the cm.amp.avg.24hrs (1.00 µM) was 66.49 and the cm.amp.cv.24hrs (1.00 µM) was 35.31. For the same molecule, the cm.bpm.24hrs (1.00 µM) was 50.60, the cm.decay.rise.24hrs (1.00 µM) was 50.54 and the cm.spacing.cv.24hrs (1.00 µM) was 53.09. It also gave a cm.amp.avg.90min (10.00 µM) of 76.03, a cm.amp.cv.90min (10.00 µM) of 119.24 and a cm.bpm.90min (10.00 µM) of 115.36. For the same molecule, the cm.decay.rise.90min (10.00 µM) was 88.64, the cm.spacing.cv.90min (10.00 µM) was 116.95 and the cm.amp.avg.24hrs (10.00 µM) was 43.21. It also gave a cm.amp.cv.24hrs (10.00 µM) of 38.97, a cm.bpm.24hrs (10.00 µM) of 43.91 and a cm.decay.rise.24hrs (10.00 µM) of 43.15. It also gave a cm.spacing.cv.24hrs (10.00 µM) of 54.11, a cm.amp.avg.90min (100.00 µM) of 0.00 and a cm.amp.cv.90min (100.00 µM) of 0.00. It also gave a cm.bpm.90min (100.00 µM) of 0.00, a cm.decay.rise.90min (100.00 µM) of 0.00 and a cm.spacing.cv.90min (100.00 µM) of 0.00. It also gave a cm.amp.avg.24hrs (100.00 µM) of 0.00, a cm.amp.cv.24hrs (100.00 µM) of 0.00 and a cm.bpm.24hrs (100.00 µM) of 0.00. The cm.decay.rise.24hrs (100.00 µM) was 0.00 and the cm.spacing.cv.24hrs (100.00 µM) was 0.00.
